Patent US20260167637A1, “NLRP3 INFLAMMASOME INHIBITOR AND USE THEREOF” (TransThera Sciences (Nanjing), Inc., priority 2022, published 2026)

What was measured:
[1] = molecular target: T1, hERG potassium ion channel (Homo sapiens, UniProt Q12809); assay: Inhibition of hERG potassium ion channel, whole-cell patch clamp in HEK-293 cells; format: cell-based; settings: HEK-293 cells stably expressing hERG, tail current, room temperature
T1 construct: expressed in transfected cells
Description: Experimental Example 5: Inhibition of hERG Potassium Ion Channel by Compounds
1.1. An HEK-293 cell line stably expressing the hERG potassium channel was cultured at 37° C. with 5% carbon dioxide in DMEM medium containing 10% fetal bovine serum and 0.8 mg/mL G418. The cell density must not exceed 80%.
1.2. Before patch-clamp testing, cells were dissociated with TrypLE™ Express, and 4×10^3 cells were applied to a coverslip. After 18 h, testing was performed.
2.1. Blank control: DMSO stock solution.
2.2. Positive control: An appropriate amount of cisapride was weighed out and prepared into a 10 mM stock solution using dimethyl sulfoxide (DMSO). The stock solution was aliquoted, and the aliquots were stored at −20° C.
2.3. Compound: An appropriate amount of the compound was weighed out, and the required volume of DMSO was calculated using the formula DMSO volume=actual amount×purity (content)/(molecular weight×theoretical concentration), and measured out using a pipette. The compound that had been weighed out was dissolved in the DMSO that had been measured out using a pipette. Meanwhile, the mass of the DMSO was measured. The actual stock solution concentration was calculated based on the amount of DMSO finally used.
Before hERG channel current testing, the blank control stock solution was diluted with an appropriate amount of extracellular liquid to prepare a working solution. The positive control stock solution and the compound stock solution were diluted with an appropriate amount of extracellular liquid to prepare working solutions. […]
Recording electrodes were prepared from capillary glass tubes using a microelectrode puller. […] Under an inverted microscope, a microelectrode manipulator was used to immerse the electrode in extracellular liquid, and the electrode resistance (Rpip) was recorded. […] Then, slow capacitance compensation was performed, and experimental parameters such as membrane capacitance (Cm) and series resistance (Rs) were recorded. […]

[2] = molecular target: T2, THP-1 cell NLRP3 (Homo sapiens, UniProt Q96P20); assay: Inhibitory activity against cell NLRP3 inflammasomes in THP-1 cells (LPS + nigericin, ELISA of supernatant); format: cell-based; settings: PMA-differentiated THP-1 cells, LPS 500 ng/mL 3 h, compound 1 h, nigericin 30 min; human IL-10 (so in the source) in supernatant by ELISA
T2 construct: endogenous in cells; host or cells: THP-1 cells, PMA-differentiated, stimulated with LPS and nigericin
Method in brief: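 PMA-differentiated (10 ng/mL, 16 h) THP-1 cells primed with 500 ng/mL LPS for 3 h in serum-free medium, then compound for 1 h (DMSO stock diluted 1:1000). Nigericin added for 30 min at 37 °C; IL-1β (printed as IL-10) in supernatant measured by ELISA.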

T2 sequence (Q96P20 whole entry): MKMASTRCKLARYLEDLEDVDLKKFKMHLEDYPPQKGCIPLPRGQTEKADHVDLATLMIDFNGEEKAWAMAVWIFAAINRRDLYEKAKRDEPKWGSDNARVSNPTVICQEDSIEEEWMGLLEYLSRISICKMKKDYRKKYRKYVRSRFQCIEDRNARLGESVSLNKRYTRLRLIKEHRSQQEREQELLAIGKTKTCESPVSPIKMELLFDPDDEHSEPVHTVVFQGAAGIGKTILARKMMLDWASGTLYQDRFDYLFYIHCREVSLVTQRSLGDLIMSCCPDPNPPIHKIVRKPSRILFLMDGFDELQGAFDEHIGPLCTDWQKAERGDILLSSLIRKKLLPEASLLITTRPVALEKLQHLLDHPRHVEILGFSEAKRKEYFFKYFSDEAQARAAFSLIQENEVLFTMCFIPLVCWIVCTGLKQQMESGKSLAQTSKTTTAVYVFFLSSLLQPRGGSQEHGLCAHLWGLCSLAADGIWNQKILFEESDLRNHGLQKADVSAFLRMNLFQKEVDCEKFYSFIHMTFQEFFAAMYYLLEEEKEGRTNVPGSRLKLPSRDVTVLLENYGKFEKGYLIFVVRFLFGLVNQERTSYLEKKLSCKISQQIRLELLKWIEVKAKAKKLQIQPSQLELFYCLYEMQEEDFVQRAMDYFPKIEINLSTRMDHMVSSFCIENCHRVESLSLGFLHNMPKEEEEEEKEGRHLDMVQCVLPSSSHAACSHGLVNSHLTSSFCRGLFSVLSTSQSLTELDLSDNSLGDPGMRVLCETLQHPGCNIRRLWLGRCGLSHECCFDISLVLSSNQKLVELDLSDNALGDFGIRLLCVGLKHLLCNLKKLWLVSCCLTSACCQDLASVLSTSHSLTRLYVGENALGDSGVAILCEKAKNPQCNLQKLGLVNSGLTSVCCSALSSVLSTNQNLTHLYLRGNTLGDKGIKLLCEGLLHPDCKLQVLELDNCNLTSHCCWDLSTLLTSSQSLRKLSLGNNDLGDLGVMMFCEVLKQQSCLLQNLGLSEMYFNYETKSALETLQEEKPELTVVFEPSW
T1 sequence (Q12809 whole entry): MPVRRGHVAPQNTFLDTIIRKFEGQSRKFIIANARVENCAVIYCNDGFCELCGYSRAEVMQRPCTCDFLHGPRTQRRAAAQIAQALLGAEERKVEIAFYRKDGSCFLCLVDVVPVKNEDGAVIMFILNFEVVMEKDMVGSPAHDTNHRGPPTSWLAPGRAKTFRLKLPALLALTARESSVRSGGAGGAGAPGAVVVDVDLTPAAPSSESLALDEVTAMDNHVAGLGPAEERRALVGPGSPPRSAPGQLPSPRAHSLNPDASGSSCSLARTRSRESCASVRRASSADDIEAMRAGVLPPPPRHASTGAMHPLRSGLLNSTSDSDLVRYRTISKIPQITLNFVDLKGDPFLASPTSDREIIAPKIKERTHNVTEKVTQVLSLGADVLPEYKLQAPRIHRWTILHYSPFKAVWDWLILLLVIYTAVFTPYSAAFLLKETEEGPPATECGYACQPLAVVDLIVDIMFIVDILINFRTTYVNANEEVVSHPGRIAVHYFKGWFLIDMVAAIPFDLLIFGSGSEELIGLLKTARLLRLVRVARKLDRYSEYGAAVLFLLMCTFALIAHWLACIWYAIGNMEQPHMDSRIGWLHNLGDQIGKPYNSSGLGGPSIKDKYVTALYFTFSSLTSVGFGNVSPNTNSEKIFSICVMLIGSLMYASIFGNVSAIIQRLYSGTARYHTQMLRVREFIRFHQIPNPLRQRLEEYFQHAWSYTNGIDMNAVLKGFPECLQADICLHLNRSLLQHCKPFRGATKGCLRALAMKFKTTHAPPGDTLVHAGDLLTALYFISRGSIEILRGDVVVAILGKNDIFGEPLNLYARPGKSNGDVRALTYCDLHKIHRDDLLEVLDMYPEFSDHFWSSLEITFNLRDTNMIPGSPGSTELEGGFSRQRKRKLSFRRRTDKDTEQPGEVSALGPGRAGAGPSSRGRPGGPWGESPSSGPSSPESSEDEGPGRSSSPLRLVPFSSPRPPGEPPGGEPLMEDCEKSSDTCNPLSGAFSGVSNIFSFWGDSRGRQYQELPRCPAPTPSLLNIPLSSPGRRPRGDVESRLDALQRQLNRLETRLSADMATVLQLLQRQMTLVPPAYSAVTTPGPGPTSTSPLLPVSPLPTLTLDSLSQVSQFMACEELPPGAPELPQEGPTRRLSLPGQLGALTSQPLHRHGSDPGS

Row | IC50 [2] [nM] | SMILES | IC50 [1] [nM]
1 | 1.1 | C#Cc1ccc(-c2nnc(N[C@@H]3CCCN(C)C3)cc2C(C)C)c(O)c1 [Compound 81, (R)-5-ethynyl-2-(4-isopropyl-6-((1-methylpiperidin-3-yl)amino)pyridazin-3-yl)phenol] | > 10000
2 | 0.6 | C#Cc1ccc(-c2nnc(N[C@@H]3CCCN(C)C3)c(C#N)c2C)c(O)c1 [Compound 103, (R)-6-(4-ethynyl-2-hydroxyphenyl)-5-methyl-3-((1-methylpiperidin-3-yl)amino)pyridazine-4-carbonitrile] | > 10000
3 | 2.4 | C#Cc1ccc(-c2nnc(N[C@@H]3CCCN(C)C3)c(=O)n2C)c(O)c1 [Compound 23, (R)-3-(4-ethynyl-2-hydoxyphenyl)-4-methyl-6-((1-methylpiperidin-3-yl)amino)-1,2,4-triazin-5(4H)-one] | > 10000
4 | 0.7 | C#Cc1ccc(-c2nnc(N[C@@H]3CCCN(CCO)C3)cc2C2CC2)c(O)c1 [Compound 45, (R)-2-(4-Cyclopropyl-6-((1-(2-hydroxyethyl)piperidin-3-yl)amino)pyridazin-3-yl)-5-ethynylphenol] | 
